In patent publication USRE47739E1, “2-(pyridin-2-ylamino)-pyrido[2,3-D]pyrimidin-7-ones” (Warner-Lambert Company LLC, priority 2002, dated 2019):
Where a name gives a salt, the structure may show the parent alone.

Legend:
[1] = biological target: FGF receptor (FGFr) tyrosine kinase (Homo sapiens, UniProt P11362); assay: Assay for Inhibition of FGFr; format: biochemical; details: 50 μM ATP, Poly (4:1) glutamate-tyrosine substrate, 25° C.
Experimental: (§1) The assays were carried out as described below.
Assay for Inhibition of FGFr
For FGF receptor (FGFr) tyrosine kinase assays 96-well plates (100 μL/incubation/well), and conditions are optimized to measure the incorporation of ^32P from [γ^32P]ATP into a glutamate-tyrosine co-polymer substrate. Briefly, to each well is added 82.5 μL incubation buffer B (25 mM Hepes (pH 7.0), 150 mM NaCl, 0.1% Triton X-100, 0.2 mM PMSF, 0.2 mM Na3VO4, 10 mM MnCl2) and 750 μg/mL Poly (4:1) glutamate-tyrosine followed by 2.5 μL of the test compound in buffer B and 5 μL of a 7.5 μg/μL FGFr solution to initiate the reaction. Following a 10-minute incubation at 25° C., […] [γ^32P]ATP (0.4 μCi plus 50 μM ATP) is added to each well, and samples are incubated for an additional 10 minutes at 25° C. The reaction is terminated by the addition of 100 μL 30% trichloroacetic acid (TCA) containing 20 mM sodium pyrophosphate and precipitation of material onto glass fiber mats (Wallac). […] Nonspecific activity is defined as radioactivity retained on the filters following incubation of samples with buffer alone (no enzyme). Specific enzymatic activity (enzyme plus buffer) is defined as total activity minus nonspecific activity.

[2] = biological target: Cdk4/Cyclin D (Homo sapiens, UniProt P11802); assay: Assay for Inhibition of Cdk4/Cyclin D; format: biochemical; details: 25 μM ATP, retinoblastoma protein substrate, 25° C., 15 minutes
Sequence of Cdk4/Cyclin D (P11802 whole entry, species assumed): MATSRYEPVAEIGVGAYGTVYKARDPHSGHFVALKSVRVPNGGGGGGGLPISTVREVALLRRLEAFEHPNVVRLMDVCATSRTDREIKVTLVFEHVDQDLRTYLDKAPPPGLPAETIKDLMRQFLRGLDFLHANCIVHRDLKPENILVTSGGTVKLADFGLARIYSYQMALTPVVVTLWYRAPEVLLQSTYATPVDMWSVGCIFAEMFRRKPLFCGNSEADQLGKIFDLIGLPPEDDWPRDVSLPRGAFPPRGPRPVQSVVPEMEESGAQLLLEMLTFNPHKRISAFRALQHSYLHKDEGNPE
Sequence of Cdk4/Cyclin D (P24385 whole entry partner, species assumed): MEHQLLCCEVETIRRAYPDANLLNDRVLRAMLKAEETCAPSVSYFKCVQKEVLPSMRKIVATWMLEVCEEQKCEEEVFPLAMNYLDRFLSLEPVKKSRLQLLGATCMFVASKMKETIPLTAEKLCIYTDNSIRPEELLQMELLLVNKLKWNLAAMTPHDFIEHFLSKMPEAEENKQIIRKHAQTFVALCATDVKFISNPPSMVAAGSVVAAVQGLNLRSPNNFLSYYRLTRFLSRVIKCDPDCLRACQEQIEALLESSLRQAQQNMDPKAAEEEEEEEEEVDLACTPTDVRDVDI
Experimental: as §1
Assay for Inhibition of Cdk4/Cyclin D
The Cdk4 enzyme assay for IC50 determination and kinetic evaluation is performed as follows. 96-well filter plates (Millipore MADVN6550) are used. […] Buffer A containing excess EDTA was used to determine the level of background ^32P in the absence of enzyme activity. All components except the ATP are added to the wells, and the plate is placed on a plate mixer for 2 minutes. The reaction is started by adding [^32P]ATP, and the plate is incubated at 25° C. for 15 minutes. The reaction is terminated by addition of 0.1 mL 20% trichloroacetic acid (TCA). The plate is kept at 4° C. for at least 1 hour to allow the substrate to precipitate. The wells are then washed five times with 0.2 mL 10% TCA, and ^32P incorporation is determined with a beta plate counter (Wallac Inc., Gaithersburg, Md.).

Sequence of FGF receptor (FGFr) tyrosine kinase (P11362 22-822): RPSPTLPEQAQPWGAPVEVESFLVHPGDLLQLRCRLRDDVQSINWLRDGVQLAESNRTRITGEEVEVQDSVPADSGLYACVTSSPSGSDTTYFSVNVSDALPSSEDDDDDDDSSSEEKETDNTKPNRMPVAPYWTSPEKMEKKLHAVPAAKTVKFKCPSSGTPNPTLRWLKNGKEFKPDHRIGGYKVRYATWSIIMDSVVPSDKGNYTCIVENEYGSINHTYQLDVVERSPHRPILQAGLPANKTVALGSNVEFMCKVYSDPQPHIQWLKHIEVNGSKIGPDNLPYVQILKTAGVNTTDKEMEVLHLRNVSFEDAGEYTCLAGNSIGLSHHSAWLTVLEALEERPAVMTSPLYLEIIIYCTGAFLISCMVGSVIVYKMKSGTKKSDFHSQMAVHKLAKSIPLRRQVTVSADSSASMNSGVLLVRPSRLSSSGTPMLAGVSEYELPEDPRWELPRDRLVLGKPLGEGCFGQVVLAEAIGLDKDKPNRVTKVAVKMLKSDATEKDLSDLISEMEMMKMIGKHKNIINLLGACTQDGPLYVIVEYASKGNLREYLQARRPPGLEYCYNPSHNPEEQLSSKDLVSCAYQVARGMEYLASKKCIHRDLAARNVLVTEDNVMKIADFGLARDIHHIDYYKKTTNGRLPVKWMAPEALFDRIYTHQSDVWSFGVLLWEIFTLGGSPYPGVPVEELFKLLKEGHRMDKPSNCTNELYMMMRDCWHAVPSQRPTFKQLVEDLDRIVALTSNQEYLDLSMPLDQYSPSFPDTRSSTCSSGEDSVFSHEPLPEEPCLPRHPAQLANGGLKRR

Structure (SMILES)	IC50 [1] [µM]	IC50 [2] [nM]
O=c1c(CO)cc2cnc(Nc3ccc(N4CCNCC4)cn3)nc2n1C1CCCC1 [Example 29, 8-Cyclopentyl-6-hydroxymethyl-2-(5-piperazin-1-yl-pyridin-2-ylamino)-8H-pyrido[2,3-d]pyrimidin-7-one hydrochloride]	4.38	13
CCc1cc2cnc(Nc3ccc(N4CCNCC4)cn3)nc2n(C2CCCC2)c1=O [Example 5, 8-Cyclopentyl-6-ethyl-2-(5-piperazin-1-yl-pyridin-2-ylamino)-8H-pyrido[2,3-d]pyrimidin-7-one hydrochloride]	0.99	19
CC(C)COc1cc2cnc(Nc3ccc(N4CCNCC4)cn3)nc2n(C2CCCC2)c1=O [Example 22, 8-Cyclopentyl-6-isobutoxy-2-(5-piperazin-1-yl-pyridin-2-ylamino)-8H-pyrido[2.3-d]pyrimidin-7-one hydrochloride]	> 5	1700
O=c1ccc2cnc(Nc3ccc(N4CCNCC4)cn3)nc2n1C1CC1 [Example 64, 8-cyclopropyl-2-(5-piperazin-1-yl-pyridin-2-ylamino)-8H-pyrido[2,3-d]pyrimidin-7-one]	4.47	920
CN1CCC[C@H]1c1ccc(Nc2ncc3cc(Br)c(=O)n(C4CCCC4)c3n2)nc1 [Example 12, 6-Bromo-8-cyclopentyl-2-[5-((S)-1-methyl-1-pyrrolidin-2-yl)-pyridin-2-ylamino]-8H-pyrido[2,3-d]pyrimidin-7-one hydrochloride]		175
COCCOCc1cc2cnc(Nc3ccc(N4CCNCC4)cn3)nc2n(C2CCCC2)c1=O [Example 112, 8-Cyclopentyl-6-(2-methoxy-ethoxymethyl)-2-(5-piperazin-1-yl-pyridin-2-ylamino)-8H-pyrido[2,3-d]pyrimidin-7-one]	> 5	31
O=c1c(F)cc2cnc(Nc3ccc(N4CCNCC4)cn3)nc2n1C1CCCC1 [Example 18, 8-Cyclopentyl-6-fluoro-2-(5-piperazin-1-yl-pyridin-2-ylamino)-8H-pyrido[2,3-d]pyrimidin-7-one hydrochloride]		51
CCOCCOc1cc2cnc(Nc3ccc(N4CCNCC4)cn3)nc2n(C2CCCC2)c1=O [Example 53, 8-Cyclopentyl-6-(2-ethoxy-ethoxy)-2-(5-piperazin-1-yl-pyridin-2-ylamino)-8H-pyrido[2,3-d]pyrimidin-7-one]	> 5	36
CC(C)n1c(=O)ccc2cnc(Nc3ccc(N4CCNCC4)cn3)nc21 [Example 57, 8-isopropyl-2-(5-piperazin-1-yl-pyridin-2-ylamino)-8H-pyrido[2.3-d]pyrimidin-7-one]	> 5	> 5000
NC(=O)c1ccc(Nc2ncc3cc(Br)c(=O)n(C4CCCC4)c3n2)nc1 [Example 14]		260
O=c1c(Br)cc2cnc(Nc3ccccn3)nc2n1C1CCCC1 [Example 38, 6-Bromo-8-cyclopentyl-2-(Pyridin-2-ylamino)-8H-pyrido[2,3-]pyrimidin-7-one]	> 5	950
O=c1c(Br)cc2cnc(Nc3ccccn3)nc2n1C1CCCCC1 [Example 13, 6-Bromo-8-cyclohexyl-2-(pyridin-2-yl-amino)-8H-pyrido[2,3-d]pyrimidin-7-one]		> 5000

The next lines start with the values.

IC50 [1] [µM]	IC50 [2] [nM]	Structure (SMILES)
	19	CC(=O)c1c(C)c2cnc(Nc3ccc(N4CCC(O)CC4)cn3)nc2n(C2CCCC2)c1=O [Example 77, 6-Acetyl-8-cyclopentyl-2-(4-hydroxy-3,4,5,6-tetrahydro-2H-[1,3′]bipyridinyl-6′-ylamino)-5-methyl-8H-pyrido[2,3-d]pyrimidin-7-one]
> 5	63	Cc1c(Br)c(=O)n(C2CCCC2)c2nc(Nc3ccc(N4CC(C)NC(C)C4)cn3)ncc12 (centres unmarked) [Example 93, 6-Bromo-8-cyclopentyl-2-[5-(3,5-dimethyl-piperazin-1-yl)-pyridin-2-ylamino]-5-methyl-8H-pyrido[2,3-d]pyrimidin-7-one]
> 5	14	CC(=O)c1c(C)c2cnc(Nc3ccc(N4CCC(N)C4)cn3)nc2n(C2CCCC2)c1=O (centres unmarked) [Example 74, 6-Acetyl-2-[5-(3-amino-pyrrolidin-1-yl)-pyridin-2-ylamino]-8-cyclopentyl-5-methyl-8H-pyrido[2,3-d]pyrimidin-7-one]
> 5	4	CC(=O)c1c(C)c2cnc(Nc3ccc(N4CCOCC4)cn3)nc2n(C2CCCC2)c1=O [Example 100, 6-Acetyl-8-cyclopentyl-5-methyl-2-(5-morpholin-4-yl-pyridin-2-ylamino)-8H-pyrido[2,3-d]pyrimidin-7-one]
> 5	580	Cc1cc(=O)n(C2CCCC2)c2nc(Nc3ccc(N4CCNCC4)cn3)ncc12 [Example 84, 8-Cyclopentyl-5-methyl-2-(5-piperazin-4-yl-pyridin-2-ylamino)-8H-pyrido[2,3-d]pyrimidin-7-one]
> 5	160	Cc1c(Br)c(=O)n(C2CCCC2)c2nc(Nc3ccc(N4CCNCC4)cn3)ncc12 [Example 15, 6-Bromo-8-cyclopentyl-5-methyl-2-(5-piperizin-1-yl-pyridin-2-ylamino)-8H-pyrido[2,3-d]pyrimidin-7-one]
	5	CC(=O)c1c(C)c2cnc(Nc3ccc(N4CCN(C)CC4)cn3)nc2n(C2CCCC2)c1=O [Example 72, 6-Acetyl-8-cyclopentyl-5-methyl-2-[5-(4-methyl-piperazin-1-yl)-pyridin-2-ylamino]-8H-pyrido[2,3-d]pyrimidin-7-one]
	> 5000	Cc1c(Br)c(=O)n(C2CCCC2)c2nc(Nc3ccc(N4CCCCC4)cn3)ncc12 [Example 103, 6-Bromo-8-cyclopentyl-5-methyl-2-(3,4,5,6-tetrahydro-2H-[1,3]bipyridinyl-6′-ylamino)-8H-pyrido[2,3-d]pyrimidin-7-one]
> 5	37	CC(=O)c1c(C)c2cnc(Nc3ccc(N4CC(C)NC(C)C4)cn3)nc2n(C2CCCC2)c1=O (centres unmarked) [Example 95, 6-Acetyl-8-cyclopentyl-2-[5-(3,5-dimethyl-piperazin-1-yl)-pyridin-2-ylamino]-5-methyl-8H-pyrido[2,3-d]pyrimidin-7-one]
> 5	123	CC(=O)c1cc2cnc(Nc3ccc(N4CCNCC4)cn3)nc2n(C2CCCC2)c1=O [Example 33, 6-Acetyl-8-cyclopentyl-2-(5-piperazin-1-yl-pyridin-2-ylamino)-8H-pyrido[2.3-d]pyrimidin-7-one hydrochloride]
	5	CC(=O)c1c(C)c2cnc(Nc3ccc(N4CCCCC4)cn3)nc2n(C2CCCC2)c1=O [Example 105, 6-Acetyl-8-cyclopentyl-5-methyl-2-(3,4,5,6-tetrahydro-2H-[1,3′]bipyridinyl-6′-ylamino)-8H-pyrido[2,3-d]pyrimidin-7-one]
> 5	12	CC(=O)c1c(C)c2cnc(Nc3ccc(N4CCCNCC4)cn3)nc2n(C2CCCC2)c1=O [Example 81, 6-Acetyl-8-cyclopentyl-2-(5-[1,4]diazepan-1-yl-pyridin-2-ylamino)-5-methyl-8H-pyrido[2,3-d]pyrimidin-7-one]
	595	CCOC(=O)c1cc2cnc(Nc3ccc(N4CCNCC4)cn3)nc2n(C2CCCC2)c1=O [Example 7, 8-Cyclopentyl-7-oxo-2-(5-piperazin-1-yl-pyridin-2-ylamino)-7,8-dihydro-pyrido[2,3-d]pyrimidine-6-carboxylic acid ethyl ester hydrochloride]
